# Data reported in patent US20090196854A1, “METHODS AND COMPOSITIONS FOR USE OF CRL 5803 CELLS FOR EXPRESSION OF BIOTHERAPEUTICS AND ENCAPSULATED CELL-BASED DELIVERY” (priority 2008, published 2009).
# Like-named read-outs stand apart in the source and are kept apart here.
# Tests used:
# [1] = system: HT1080 cells (CD clone); assay: 5FC sensitivity of cells expressing WT CD gene; type: cell-based, human
# From the text: HT1080 cells and CD Expression, The HT1080 cell line was obtained from the ATCC and transfected with the WT CD gene of the present invention. A clone was isolated that had high expression of immunoreactive CD. […] This represents toxicity at about 100-fold lower concentrations of 5FC than achieved by others with HT1080 cells (Dachs, et al., Nature Medicine 3:515-20, 1997).
# [2] = system: ARPE-19 cells; assay: 5FC sensitivity of cells transfected with CD gene; type: cell-based, human; conditions: ARPE-19 transfected with CD gene
# From the text: ARPE-19 and CD Expression. […] The purpose of the screen was to eliminate 5FU-resistant cells with the expectation that it would be difficult to use CD as a kill system in such cells. We conclude that lack of cytotoxicity with CD transgene and 5FC treatment in these cells is, at least in part, due to the insensitivity of these cells to 5FU cytotoxicity. The 5-FC and CD cell suicide safety system may not readily be an effective safety system with ARPE-19 cells.
# [3] = system: CRL5816 cells; assay: 5FC sensitivity of cells expressing WT-CD transgene; type: cell-based; conditions: Homo sapiens
# [4] = system: K3.4; assay: 5FC and 5FU dose-response in BDNF-expressing CRL 5803 line and CD transfectants; type: cell-based; conditions: Homo sapiens, read-out: 5FC IC50
# Procedure: (§1) CRL 5803 cells expressing BDNF and CD: The CRL 5803 cell line was transfected with BDNF and clones expressing BDNF were selected. These selected clones were expanded to provide cells for transfections with cytosine deaminase plasmid (CX014). Four CD gene transfection studies were performed with three different BDNF-expressing cell lines. For each cell line at least 24 resistant clones were picked and screened for sensitivity to 100 μM 5FC. The clones with the lowest survival in 5FC (as percent of control wells) were then expanded for dose-response studies with 5FC and 5FU. Cytotoxicity of 5FC was used as an indication of CD gene expression, and this screen provided 6-9 clones per transfection. The IC50 for 5FU indicated the maximum potential cytotoxicity of the prodrug, 5FC, in cells expressing sufficient levels of CD gene and protein.
# [5] = system: K3.3; assay: as above; type: cell-based; conditions: Homo sapiens; K3.3 transfected with CD gene; read-out: 5FC IC50
# Procedure: as §1
# [6] = system: K3.31; assay: as above; type: cell-based; conditions: Homo sapiens; K3.31 transfected with CD gene; read-out: 5FC IC50
# Procedure: as §1
# [7] = system: human kidney cells 293 cells; assay: 5FC sensitivity of cells expressing WT-CD transgene; type: cell-based; conditions: HEK293, 293 cells expressing WT-CD transgene
# [8] = system: human colon tumor cells; assay: as above; type: cell-based
# [9] = system: ARPE-19; type: cell-based, human
# Procedure: (§2) The cell lines were plated in 48 well plates at an appropriate dilution of cells for each cell line to provide for rapid entry into log phase of growth. The various concentrations of the selection drugs were added so that the drugs were present at the initiation of log phase growth and viable cells were determined after 7-10 days of culture. The screening used data for functional mass at the end of the study to express viable cells as a percentage of the vehicle, or no-treatment control wells. […] The % viable cell mass data was plotted, and fitted typically with a four-parameter equation. The fitted equation was used to calculate the IC50 dose. The drugs tested were G418 (inactivated by neomycin phophotransferase, NPT), hygromycin (inactivated by hygromycin phosphotansferse, HPT), blasticidin (inactivated by blasticidin deaminase, BSD), and zeocin (bound by bleomycin binding protein, BBP). These antibiotics were obtained from Invitrogen/Gibco (Invitrogen SA, Barcelona).
# (§3) The drugs, G418, Zeocin, hygromycin, and blasticidin were obtained and used as described earlier. The most important aspect of these studies was to identify the concentration needed to kill all non-transfected cells.
# [10] = system: CRL1440; type: cell-based, human
# Procedure: as §2, §3
# [11] = system: CCL205; type: cell-based, human
# Procedure: as §2, §3
# [12] = system: CRL5803; type: cell-based, human
# Procedure: as §2, §3
# [13] = system: CCL205 polyclone; conditions: CMV promoter polyclone
# Procedure: (§4) In an effort to address this issue we used plasmids we had constructed that used either of three viral promoter/enhancers: CMV, SV40, or RSV. These viral regulatory elements were used to direct the expression of the selectable marker for Zeocin, a bleomycin binding protein (BBP) that inactivates the drug by binding, rather than enzymatic degradation. The resistant colonies produced by these transfections were grown as polyclones for each different promoter.
# The growth of CCL205 cells was slow enough that for IC50 calculations the final viable mass was used rather than growth.
# [14] = system: ARPE-19 polyclone; assay: Zeocin dose-response of growth in BBP-transfected polyclones; type: cell-based, human
# [15] = system: CRL1440 polyclones; assay: as above
# Procedure: as §4
# Polyclones were expanded in 300 μg/ml Zeocin for SV40 and CMV promoter plasmids, and then plated to determine IC50s for growth at varied Zeocin doses.
# [16] = system: CRL 5803 polyclones
# Procedure: as §4
compound,measurement,setting,value
"Nc1nc(=O)[nH]cc1F [5FC, 5-fluorocytosine]",IC50,"[1]; Homo sapiens, HT-1080, HT1080 clone with high expression of immunoreactive CD, dominantly growth arrest",110 µM
same,fold lower toxic concentration of 5FC than achieved by others with HT1080 cells,[1]; versus Dachs et al. 1997,about 100 fold
same,sensitivity of CD-transfected clones to 5FC,[2],unable to isolate clones that were sensitive to 5FC
same,IC50,[3],48 µM
same,IC50,[4]; independent second transfection with the CD gene,67 ± 8 µM
same,IC50,[4]; one of the transfections with the CD gene,79 ± 9 µM
same,IC50,[5],14 ± 2 µM
same,IC50,[6],21 ± 2 µM
same,IC50,[7],55 µM
same,IC50,[8],45 µM
Cc1c(N)nc([C@H](CC(N)=O)NC[C@H](N)C(N)=O)nc1C(=O)N[C@H](C(=O)N[C@H](C)[C@@H](O)[C@H](C)C(=O)N[C@H](C(=O)NCCC1=N[C@@H](c2nc(C(=O)NCCCCN=C(N)N)cs2)CS1)[C@@H](C)O)[C@@H](O[C@@H]1O[C@@H](CO)[C@@H](O)[C@H](O)[C@@H]1O[C@H]1O[C@H](CO)[C@@H](O)[C@H](OC(N)=O)[C@@H]1O)c1cnc[nH]1 [Zeocin],concentration found to kill non-transfected cells,[9],50 µg/mL
same,concentration found to kill non-transfected cells,[10],100 µg/mL
same,concentration found to kill non-transfected cells,[11],<20 µg/mL
same,concentration found to kill non-transfected cells,[12],500 µg/mL
same,IC50 for Zeocin (final viable mass),[13],27 µg/mL
same,shift in resistance compared to cells with no Zeocin-resistance gene,[14]; CMV promoter,~8 fold
same,IC50 for growth in Zeocin,[14]; CMV promoter-BBP polyclone,399 µg/mL
same,IC50 for growth in Zeocin,[15]; CMV plasmids,2395 µg/mL
same,IC50 for growth in Zeocin,[15]; SV40 promoter plasmid,959 µg/mL
same,growth IC50 in Zeocin,"[16]; CRL 5803, CMV promoter-BBP",2700 µg/mL
same,growth IC50 in Zeocin,"[16]; CRL 5803, RSV promoter-BBP",2400 µg/mL
same,growth IC50 in Zeocin,"[16]; CRL 5803, SV40 promoter plasmid",2800 µg/mL
same,increase in the growth IC50,"[16]; CRL 5803, all promoters",~5 fold
same,doses at which cytotoxicity was evident,"[16]; CRL 5803 CMV promoter polyclone, dose range extended to 5000 μg/ml",> 3000 µg/mL
